{"source": "patent US9265845B2", "about": "“Imaging methods using engineered integrin binding peptides” (The Board of Trustees of the Leland Stanford Junior …, priority 2006, dated 2016)", "key": {"αvβ3 integrin": {"target": "αvβ3 integrin (Homo sapiens, UniProt P05106+P06756)", "test": "Competition of 125I-echistatin to detergent-solubilized plate-coated integrin", "assay_type": "binding", "settings": "0.06 nM 125I echistatin, 5 nM and 50 nM peptide", "protocol": "(§1) FIG. 10A through FIG. 10D is a series of histograms showing binding specificities to integrins αvβ3, αvβ5, α5β1, and αiibβ3 for engineered EETI-RGD peptides compared to controls. Error bars represent experiments performed in triplicate. Competition binding of 0.06 nM ^125I echistatin with 5 nM (black bars) and 50 nM (grey bars) unlabeled peptide to plate-coated integrins was measured. […] The engineered peptides have very little binding to αiibβ3 integrin.\n(§2) This was done by competition of ^125I-echistatin to detergent-solubilized integrin receptors coated onto microtiter plates (see FIG. 10). […] This is consistent with previous studies which have shown αv integrin receptors can accommodate a wide range of RGD-containing cyclic structures. […] However, since α5β1 integrins are expressed on many tumors and are all involved in mediating angiogenesis and metastasis, a broad spectrum agent that targets all three integrins will be useful for diagnostic and therapeutic applications. With the exception of echistatin, all of the RGD-containing peptides bound weakly to the αiibβ3 receptor, showing the specificity of the present peptides for the αv and α5-containing integrin heterodimers. This characteristic is valuable for molecular imaging and therapeutic applications, since binding to αiibβ3 on platelet cells prevents blood clotting and would lead to non-specific in vivo effects."}, "α5β1 integrin": {"target": "α5β1 integrin (Homo sapiens, UniProt P05556+P08648)", "test": "Competition of 125I-echistatin to detergent-solubilized plate-coated integrin", "assay_type": "binding", "settings": "0.06 nM 125I echistatin, 5 nM and 50 nM peptide", "protocol": "as §1, §2"}, "αvβ5 integrin": {"target": "αvβ5 integrin (Homo sapiens, UniProt P06756+P18084)", "test": "Competition of 125I-echistatin to detergent-solubilized plate-coated integrin", "assay_type": "binding", "settings": "0.06 nM 125I echistatin, 5 nM and 50 nM peptide", "protocol": "as §1, §2"}, "U87MG glioblastoma cells [1]": {"test_system": "U87MG glioblastoma cells", "test": "Blocking of U87MG cell adhesion to fibronectin-coated plates", "assay_type": "cell-based", "source_text": "(§3) The present engineered peptides may be used in a variety of ways. If the peptides are attached to a surface, they may be used to attract/recruit cells to grow on the surface. For example, the present peptides may be applied to prosthetic devices, implants, bone grafts, and the like to promote tissue growth and healing at the site. They may be attached to culture dishes and promote attachment and differentiation of cells in culture. In addition, the present engineered peptides may be used to modulate cell binding to selected integrins such as α5β1, αvβ3 and αvβ5, particularly αvβ3, by adding the peptides to a cell culture to prevent cells expressing these integrins from adhering to a substrate. […] Also, the present 2.5F, 2.5D and 1.5B peptides were tested for blocking adhesion of U87MG glioblastoma cells to fibronectin-coated plates.\n(§4) In another experiment, the ability of engineered knottin peptides to block U87MG cell adhesion to vitronectin- and fibronectin-coated microtiter plates. Vitronectin is a natural ligand for several integrins, including αvβ3 and αvβ5. The RGD-containing peptides were all able to inhibit U87MG cell adhesion to vitronectin-coated plates in a dose-responsive manner. […] Fibronectin also binds to several integrins, (including αvβ3 and α5β1), but the α5β1 integrin receptor is generally selective for fibronectin."}, "U87MG glioblastoma cells [2]": {"test_system": "U87MG glioblastoma cells", "test": "Blocking of U87MG cell adhesion to vitronectin-coated plates", "assay_type": "cell-based", "settings": "vitronectin-coated plates", "source_text": "as §3, §4\nWhether the engineered AgRP peptides could block vitronectin-mediated adhesion to the U87MG cells was tested using an analogous assay. […] The AgRP peptides may not effectively block U87MG adhesion compared to the K562-αvβ3 cells because the αvβ5 integrins co-expressed on the surface of the U87MG cells could also contribute to vitronectin-mediated adhesion and compensate for the loss of αvβ3 integrin function."}, "U87MG tumor": {"test_system": "U87MG tumor", "test": "MicroPET imaging and biodistribution of radiolabeled peptides in U87MG tumor-bearing mice", "assay_type": "in vivo, mouse", "protocol": "MicroPET imaging of tumor-bearing mice is performed on a microPET R4 rodent model scanner (Concorde Microsystems Inc, Knoxyille, Tenn.). U87MG tumor bearing mice are injected with PET imaging agent via the tail vein. At various times post injection, the mice are anesthetized with 2% isoflurane, and 10 min static scans are obtained. Images are reconstructed by a two-dimensional ordered expectation maximum subset algorithm as previously described. Regions of interest (ROI) are drawn over the tumor on decay corrected whole body images and ROI derived % injected dose per gram of tissue is determined. Statistical analysis is performed using the student's t-test for unpaired data. A 95% confidence level is used to determine statistical significance.\nFemale athymic mice bearing U87MG tumors were injected with 80-150 μCi of ^64Cu-DOTA-knottin 2.5D or 7-9 μCi of [^18F]-FB-E[knottin 2.5D]. Static images were taken at various timepoints post injection using a microPET R4 rodent model scanner (Concorde Microsystems Inc, Knoxyille, Tenn.). […] Uptake was also observed in the kidney as both probes cleared through the bladder.\nMice are sacrificed by exanguinations at various time points postinjection. Blood, tumor and the major organs and tissues are collected, wet-weighed and measured in a γ-counter. The % injected dose per gram is determined for each sample. For each mouse, radioactivity of the tissue samples is calibrated against a known aliquot of the injectate. Values are reported as the mean±standard deviation.\nThe following Table 10 quantifies the ^64Cu-DOTA knottin uptake by direct tissue sampling of the mice up to 24 hours post injection and is reported in % ID (percent injected dose)/gram. Similar results were obtained with [^18F]-FB-E[knottin 2.5D].\nA U87MG glioblastoma xenograft mouse model was used. U87MG cells were maintained at 37° C. in a humidified atmosphere containing 5% CO2 in Dulbecco's modified eagle medium, 10% heat-inactivated fetal bovine serum, and penicillin-streptomycin (all from Invitrogen). Animal procedures were carried out according to a protocol by Stanford University Administrative Panels on Laboratory Animal Care. Female athymic nude mice (nu/nu), obtained at 4-6 weeks of age (Charles River Laboratories, Inc.), were injected subcutaneously in the right or left shoulder with 2×10^7 U87MG glioblastoma cells suspended in 100 μL of PBS. Mice were used for in vivo imaging studies when their tumors reached approximately 8 to 10 millimeters in diameter.\nU87MG tumor-bearing mice (n=3 or more for each probe) were injected with ˜100 μCi of ^64Cu-DOTA-conjugated peptides via the tail vein and imaged with a microPET R4 rodent model scanner (Siemens Medical) using 3 or 5 min static scans. […] Images were reconstructed by a two dimensional ordered expectation maximum subset algorithm and calibrated as previously described (Wu, Y, Zhang, X, Xiong, Z, et al. microPET imaging of glioma integrin {alpha}v{beta}3 expression using (64)Cu-labeled tetrameric RGD peptide. J Nucl Med 2005; 46:1707-18). ROIs were drawn over the tumor on decay-corrected whole body images using ASIPro VM software (Siemens Medical). The mean counts per pixel per minute were obtained from the ROI and converted to counts per milliliter per minute with a calibration constant. ROIs were converted to counts/g/min, and % ID/g values were determined assuming a tissue density of 1 g/mL. No attenuation correction was performed."}}, "note": "“Also recorded” adds a separate entry of the source."}
{"smiles": "CC[C@H](C)[C@@H]1NC(=O)[C@H]([C@@H](C)O)NC(=O)[C@@H](NC(=O)CN)CSSC[C@@H]2NC(=O)CNC(=O)[C@H](C)NC(=O)[C@H](CC(C)C)NC(=O)[C@@H]3CSSC[C@@H](C(=O)NCC(=O)O)NC(=O)[C@H](Cc4ccccc4)NC(=O)CNC(=O)[C@H](CC(N)=O)NC(=O)[C@@H]4CCCN4C(=O)CNC(=O)[C@H](CSSC[C@H](NC(=O)[C@H](CCC(=O)O)NC(=O)[C@H](CO)NC(=O)[C@@H]4CCCN4C(=O)[C@H](C)NC(=O)[C@H](Cc4c[nH]c5ccccc45)NC(=O)[C@H](CC(=O)O)NC(=O)CNC(=O)[C@H](CCCNC(=N)N)NC(=O)CNC1=O)C(=O)N[C@@H](CO)C(=O)N[C@@H](CCC(N)=O)C(=O)N[C@@H](CC(=O)O)C(=O)N[C@@H](CO)C(=O)N[C@@H](CC(=O)O)C(=O)N3)NC(=O)[C@H](C(C)C)NC2=O", "note": "[1.5B]", "values": [{"measurement": "binding to αvβ3 integrin, in words", "setting": "αvβ3 integrin", "value": "strongest levels of binding"}, {"measurement": "binding to α5β1 integrin, in words", "setting": "α5β1 integrin", "value": "only minimal binding"}, {"measurement": "binding to αvβ5 integrin, in words", "setting": "αvβ5 integrin", "value": "strongest levels of binding"}, {"measurement": "blocking of U87MG cell adhesion to fibronectin, in words", "setting": "U87MG glioblastoma cells [1]", "value": "only echistatin and polypeptide 2.5F blocked adhesion"}]}
{"smiles": "CC(C)C[C@@H]1NC(=O)[C@@H]2CSSC[C@@H](C(=O)NCC(=O)O)NC(=O)[C@H](Cc3ccccc3)NC(=O)CNC(=O)[C@H](CC(N)=O)NC(=O)[C@@H]3CCCN3C(=O)CNC(=O)[C@@H]3CSSC[C@H](NC(=O)[C@H]([C@@H](C)O)NC(=O)[C@H](CC(C)C)NC(=O)[C@@H]4CCCN4C(=O)[C@@H]4CCCN4C(=O)[C@H](CC(N)=O)NC(=O)[C@H](CC(=O)O)NC(=O)CNC(=O)[C@H](CCCNC(=N)N)NC(=O)[C@@H]4CCCN4C(=O)[C@H](CCCNC(=N)N)NC(=O)[C@@H]4CCCN4C(=O)[C@@H](NC(=O)CN)CSSC[C@H](NC(=O)CNC(=O)[C@H](C)NC1=O)C(=O)N[C@@H](C(C)C)C(=O)N3)C(=O)N[C@@H](CO)C(=O)N[C@@H](CCC(N)=O)C(=O)N[C@@H](CC(=O)O)C(=O)N[C@@H](CO)C(=O)N[C@@H](CC(=O)O)C(=O)N2", "note": "[2.5F]", "values": [{"measurement": "binding to αvβ3 integrin, in words", "setting": "αvβ3 integrin", "value": "strongest levels of binding"}, {"measurement": "binding to α5β1 integrin, in words", "setting": "α5β1 integrin", "value": "binds with strong affinity"}, {"measurement": "binding to αvβ5 integrin, in words", "setting": "αvβ5 integrin", "value": "strongest levels of binding"}, {"measurement": "blocking of U87MG cell adhesion to vitronectin, in words", "setting": "U87MG glioblastoma cells [2]", "value": "blocked adhesion better than controls"}, {"measurement": "liver uptake, in words", "setting": "U87MG tumor; 64Cu-DOTA-labeled peptides, compared to 64Cu-DOTA-c(RGDyK)", "value": "lower liver uptake"}, {"measurement": "tumor/blood ratios, in words", "setting": "U87MG tumor; PET studies, 4 h post injection, compared to 2.5D", "value": "much higher tumor/blood ratios"}, {"measurement": "PET tumor targeting / imaging signal, in words", "setting": "U87MG tumor; radiolabeled peptides, U87MG tumor-bearing mice", "value": "slower tumor washout compared to 2.5D"}, {"measurement": "blocking of U87MG cell adhesion to fibronectin, in words", "setting": "U87MG glioblastoma cells [1]", "value": "blocked adhesion; also recorded: able to block"}]}
